Assay results published in patent EP4233857A1, “BIOACTIVE COMPOUNDS OBTAINED FROM CY[…] SP. LEGE 181152” (CIIMAR - Centro Interdisciplinar de Investigação Marinha e …, priority 2022, dated 2023).
Entries after “also recorded” stand apart in the source; their conditions may differ.

Tests used:
brine shrimp = details: cited from earlier work
[1] = tested on: panel of 60 human cancer cell lines; details: Williamson et al., 2002; cited from earlier work
[2] = tested on: human colorectal carcinoma cell line, HCT 116; assay: Cytotoxicity on 3D cancer spheroids, cell viability by acid phosphatase assay; type: cell-based
Method: The cytotoxicity of the fractions A to H2 was tested against the 3D model of the human colorectal carcinoma cell line, HCT 116. Colorectal cancer has one of the highest incidences among cancer diagnosis and is also one of cancers with the highest mortality rate. Over the years, the 3D cell models have taken over drug screening due to their biologically relevance when compared to the more conventional monolayer model. Three dimensional spheroids are more representative of the microenvironment of an in vivo tumour, with interactions between cells in the different layers - a necrotic core, an intermediate quiescent layer, and a proliferative outer layer.
Cells were seeded in ULA 96 well plates and incubated for 5 days for spheroid formation. After formation, spheroids were exposed to the fractions (25 µg/mL) for 96h. Cell viability was assessed by the acid phosphatase assay. In viable cells these intracellular enzymes hydrolyse […], which can be quantified colorimetrically at 405 nm. The results were expressed as the percentage of cell viability normalized to the solvent control (DMSO). […]

[3] = tested on: HCT 116 human colon carcinoma cells; assay: Cytotoxicity on monolayer (2D) cells; type: cell-based; details: 2D assay (monolayer)
Method: The cytotoxic effect of phormidolide D (3) was tested against HCT 116 human colon carcinoma cells in monolayer (2D) and spheroid models (Figure 11). […] The difference of the IC50 values between the two cell models is commonly reported in the literature. Cancer spheroids tend to be more resistant to treatment than monolayer cells, and thus tend to present higher IC50 values. However, the cytotoxic effects in cancer spheroids are more realistic, because in this culture model, drug diffusion and cell proliferation effects are being tested. The results obtained for compound 3 are very interesting: despite its molecular weight (1064 g/mol) it can still penetrate the tightly packed cells of the outer layer of the spheroid, leading to a decrease in the cell viability in relevant concentrations (Figure 9). […]

In the case of phormidolide A, the LD50 (brine shrimp) is listed as 1.5 µM and the “cytotoxicity against a panel of 60 cancer cells” value [1] is listed as “noncytotoxic; also recorded: not considered active”.

phormidolide D showed an IC50 [2] of 13.6 µM and an IC50 [3] of 1210 nM.
